Data: ChEMBL document CHEMBL4028802, “DILIrank: the largest reference drug list ranked by the risk for developing drug-induced liver injury in humans” (Drug Discov Today, 2016)

Columns and labels:
Homo sapiens [1] = species: Homo sapiens; experiment: Liver toxicity in human assessed as induction of drug-induced liver injury by measuring verified drug-induced liver injury concern status
Homo sapiens [2] = species: Homo sapiens; experiment: Liver toxicity in human assessed as induction of drug-induced liver injury by measuring severity class index
For DILI severity class in this document: key of the grades not given here.

Compound	DILI_Concern (Homo sapiens [1])	DILI_severity_class (Homo sapiens [2])
Nc1nc(Cl)nc2c1ncn2[C@H]1C[C@H](O)[C@@H](CO)O1 [CLADRIBINE]	Ambiguous-Dili-Concern	3
O=C(Oc1ccccc1C(=O)O)c1ccccc1O [SALSALATE]	Less-Dili-Concern	3
CC(C)[C@H]1CC[C@H](C(=O)N[C@H](Cc2ccccc2)C(=O)O)CC1 [NATEGLINIDE]	Ambiguous-Dili-Concern	3
CC(=O)S[C@@H]1CC2=CC(=O)CC[C@]2(C)[C@H]2CC[C@@]3(C)[C@@H](CC[C@@]34CCC(=O)O4)[C@H]12 [SPIRONOLACTONE]	Less-Dili-Concern	2
N[C@@H](CS)C(=O)O [CYSTEINE]	Ambiguous-Dili-Concern	3
COc1c2occc2cc2ccc(=O)oc12 [METHOXSALEN]	Less-Dili-Concern	3
IVERMECTIN	Less-Dili-Concern	3
C=CC[C@@H]1/C=C(\C)C[C@H](C)C[C@H](OC)[C@H]2O[C@@](O)(C(=O)C(=O)N3CCCC[C@H]3C(=O)O[C@H](/C(C)=C/[C@@H]3CC[C@@H](O)[C@H](OC)C3)[C@H](C)[C@@H](O)CC1=O)[C@H](C)C[C@@H]2OC [TACROLIMUS ANHYDROUS]	Less-Dili-Concern	5
NCCCNCCSP(=O)(O)O [AMIFOSTINE]	No-Dili-Concern	0
C=CC(N)CCC(=O)O (stereo not given) [VIGABATRIN]	Ambiguous-Dili-Concern	2
CCCCNc1ccc(C(=O)OCCOCCOCCOCCOCCOCCOCCOCCOCCOC)cc1 [BENZONATATE]	Less-Dili-Concern	0
COC(c1ccccc1)(c1ccccc1)[C@H](Oc1nc(C)cc(C)n1)C(=O)O [AMBRISENTAN]	Ambiguous-Dili-Concern	7
CCc1ccc(CCOc2ccc(CC3SC(=O)NC3=O)cc2)nc1 (stereo not given) [PIOGLITAZONE]	Less-Dili-Concern	3
CC(=O)NCCCS(=O)(=O)O [ACAMPROSATE]	Less-Dili-Concern	3
CCCC(C)(COC(N)=O)COC(N)=O [MEPROBAMATE]	No-Dili-Concern	0
C#C[C@]1(O)CC[C@H]2[C@@H]3CCC4=CC(=O)CC[C@@H]4[C@H]3C(=C)C[C@@]21CC [ETONOGESTREL]	Ambiguous-Dili-Concern	5
CC[C@H](C)[C@H](NC(=O)[C@@H]1CCCN1C(=O)CNC(=O)[C@H](Cc1ccccc1)NC(=O)[C@H](CC(N)=O)NC(=O)[C@H](CC(N)=O)NC(=O)[C@H](CO)NC(=O)[C@H](CO)NC(=O)[C@H](Cc1c[nH]cn1)NC(=O)[C@@H](NC(=O)[C@H](CC(C)C)NC(=O)[C@H](Cc1ccccc1)NC(=O)[C@H](CC(N)=O)NC(=O)[C@H](C)NC(=O)[C@H](CC(C)C)NC(=O)[C@H](CCCNC(=N)N)NC(=O)[C@H](CCC(N)=O)NC(=O)[C@@H](NC(=O)[C@H](C)NC(=O)[C@@H]1CSSC[C@H](NC(=O)[C@@H](N)CCCCN)C(=O)N[C@@H](CC(N)=O)C(=O)N[C@@H]([C@@H](C)O)C(=O)N[C@@H](C)C(=O)N[C@@H]([C@@H](C)O)C(=O)N1)[C@@H](C)O)C(C)C)C(=O)N[C@@H](CC(C)C)C(=O)N1CCC[C@H]1C(=O)N1CCC[C@H]1C(=O)N[C@H](C(=O)N[C@@H](CC(N)=O)C(=O)N[C@H](C(=O)NCC(=O)N[C@@H](CO)C(=O)N[C@@H](CC(N)=O)C(=O)N[C@H](C(=O)N[C@@H](Cc1ccc(O)cc1)C(N)=O)[C@@H](C)O)C(C)C)[C@@H](C)O [PRAMLINTIDE]	No-Dili-Concern	0
Cc1onc(-c2ccccc2)c1C(=O)N[C@@H]1C(=O)N2[C@@H]1SC(C)(C)[C@@H]2C(=O)O [OXACILLIN]	Less-Dili-Concern	3
Cc1ccccc1N1C(=O)c2cc(S(N)(=O)=O)c(Cl)cc2NC1C (stereo not given) [METOLAZONE]	Ambiguous-Dili-Concern	3
CN1CCC[C@@H]1Cc1c[nH]c2ccc(CCS(=O)(=O)c3ccccc3)cc12	Ambiguous-Dili-Concern	3
CN(C)CCC=C1c2ccccc2COc2ccccc21 [DOXEPIN]	Less-Dili-Concern	4
COc1cc2nc(N3CCN(C(=O)C4COc5ccccc5O4)CC3)nc(N)c2cc1OC (stereo not given) [DOXAZOSIN]	Ambiguous-Dili-Concern	3
O=C(NCC1CCCCN1)c1cc(OCC(F)(F)F)ccc1OCC(F)(F)F (stereo not given) [FLECAINIDE]	Less-Dili-Concern	7
OC[C@H]1OC(O)[C@H](O)[C@@H](O)[C@@H]1O (stereo not given in full) [DEXTROSE]	No-Dili-Concern	0
C[C@H]1C[C@@H]2[C@H]([C@@H](O)C[C@@]3(C)[C@H]2CC[C@]3(O)C(=O)CO)[C@@]2(C)C=CC(=O)C=C12 [METHYLPREDNISOLONE]	Less-Dili-Concern	3
